For one assay, the target named is T1, alpha-A crystalline (Homo sapiens, UniProt P02489).
T1 sequence (P02489 1-173): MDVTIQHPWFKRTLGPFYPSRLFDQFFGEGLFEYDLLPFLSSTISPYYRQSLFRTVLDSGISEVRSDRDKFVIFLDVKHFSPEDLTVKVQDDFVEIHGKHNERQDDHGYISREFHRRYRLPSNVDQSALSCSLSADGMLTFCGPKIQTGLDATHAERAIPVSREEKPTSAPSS
In words: Ca+2 and UVC induced aggregation of alpha-A crystalline (absorbance screen).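 Further: recombinant human alpha-A crystallin (500 µg/ml) preincubated 30 min with compound, then UV-induced aggregation tracked by absorbance at time points from 0 to 120 min.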 In kind it is biochemical. As to conditions: 200 μM; Ca+2 and UVC induced aggregation of alpha-A crystalline.
With `Oc1cc(O)c2c(c1)O[C@H](c1ccc(O)c(O)c1)[C@H](O)C2` [CAP1049], the “Percent protection (at 200 μM)” value was −5%.

`COc1ccc(CCNC(=O)CCC2CCCCC2)cc1OC` [CAP1224]: the “Percent protection (at 200 μM)” value is listed as 46%.

As to `COc1ccc(CCNC(=O)CCCC(=O)NCCc2ccc(OC)c(OC)c2)cc1OC` [CAP1228, N,N′-bis[2-(3,4-dimethoxyphenyl)ethyl]pentanediamide], the “Percent protection (at 200 μM)” value is given as 60%. The same measure, in the same setting: then `CC(CCc1ccc(O)cc1)NCCc1ccc(O)c(O)c1` (centres unmarked) [CAP1264], with 3%; and `CC(CCc1ccc(O)cc1)NCCc1ccc(O)c(O)c1` (centres unmarked) [CAP1266], with −14%. Same read-out and setting: then `COc1ccc(CCNC(=O)CCCC(=O)NCCc2ccc(OC)c(OC)c2)cc1OC` [CAP1278], with 38%. Same read-out and setting: next, `Oc1cc(O)c2c(c1)O[C@H](c1ccc(O)c(O)c1)[C@H](O)C2` [CAP3032]: −16%; `Oc1cc(O)c2c(c1)O[C@H](c1ccc(O)c(O)c1)[C@H](O)C2` [CAP3042]: −17%.

The assay is the same for the next values; noted with them: 200 μM; Ca+2 and UVC induced aggregation of alpha-A crystalline; read-out: Percent protection (at 200 μM).
For the compound `CNC[C@H](O)c1ccc(O)c(O)c1` [CAP1043], the inhibition at 200 µM was -5%. For `Oc1ccc(C2CNCCc3c2cc(O)c(O)c3Cl)cc1` (centres unmarked) [CAP1044], the inhibition at 200 µM is -16%. The same measure, in the same setting: next, `Oc1cc(O)c2c(c1)O[C@H](c1ccc(O)c(O)c1)[C@@H](O)C2` [CAP1047]: -17%; `O=C(O)[C@H]1OC(Oc2cc3oc(-c4ccccc4)cc(=O)c3c(O)c2O)[C@H](O)[C@@H](O)[C@@H]1O` (some centres unmarked) [CAP1052]: 3%. Same read-out and setting: then `O=c1c(O)c(-c2ccc(O)c(O)c2)oc2cc(O)ccc12` [CAP1053], with 52%; and `C[C@@](Cc1ccc(O)c(O)c1)(NN)C(=O)O` [CAP1055], with 1%. The same measure, in the same setting: next, `C[C@](N)(Cc1ccc(O)c(O)c1)C(=O)O` [CAP1056]: -5%; `O=C(NCCc1ccc(O)c(O)c1)C12CC3CC(CC(C3)C1)C2` [CAP1057]: -8%; `COc1cc(CC2NCCc3cc(O)c(O)cc32)cc(OC)c1OC` (centres unmarked) [CAP1058]: -27%. Regarding `O=C1c2ccccc2C(=O)c2c1cc(S(=O)(=O)O)c(O)c2O` [CAP1072], the inhibition at 200 µM came out at 53%. Still for that read-out and setting: next, `COc1cc(/C=N/c2cccc(C)n2)cc([N+](=O)[O-])c1O` [CAP1110]: 19%. The same measure, in the same setting: next, `COc1cc(CNc2cccc(C)n2)cc([N+](=O)[O-])c1O` [CAP1112]: 12%. Same read-out and setting: next, `CCN(CC)C(=O)/C(C#N)=C/c1cc(O)c(O)c([N+](=O)[O-])c1` [CAP1159]: 27%; `O=C(OC[C@H]1OC(OC(=O)c2cc(O)c(O)c(OC(=O)c3cc(O)c(O)c(O)c3)c2)[C@H](OC(=O)c2cc(O)c(O)c(OC(=O)c3cc(O)c(O)c(O)c3)c2)[C@@H](OC(=O)c2cc(O)c(O)c(OC(=O)c3cc(O)c(O)c(O)c3)c2)[C@@H]1OC(=O)c1cc(O)c(O)c(OC(=O)c2cc(O)c(O)c(O)c2)c1)c1cc(O)c(O)c(OC(=O)c2cc(O)c(O)c(O)c2)c1` (some centres unmarked) [CAP1176]: 76%; `Oc1ccc(CCNCCCCCCNCCc2ccccc2)cc1O` [CAP1215]: -47%. In the case of `O=C1c2ccc(S(=O)(=O)O)c(O)c2C(=O)c2ccc(S(=O)(=O)O)c(O)c21` [CAP1219], the inhibition at 200 µM is -5%. On the same count and under the same terms, then `O=C1c2ccccc2C(=O)c2c1ccc(S(=O)(=O)O)c2O` [CAP1220], with 20%. The same measure, in the same setting: then `COc1ccc(CCNC(=O)C2CCCCC2)cc1OC` [CAP1222], with 38%; and `CCC(CC)C(=O)NCCc1ccc(OC)c(OC)c1` [CAP1223], with 29%. As for `COc1ccc(CCNC(=O)CCCCC(=O)NCCc2ccc(OC)c(OC)c2)cc1OC` [CAP1225], the inhibition at 200 µM was 50%. On the same count and under the same terms, then `COc1ccc(CCNC(=O)C2CCC2)cc1OC` [CAP1226, N-[2-(3,4-dimethoxyphenyl)ethyl]cyclobutanecarboxamide], with 72%; and `COc1ccc(CCNC(=O)C2CCN(C(=O)Cc3ccccc3)CC2)cc1OC` [CAP1227, N-[2-(3,4-dimethoxyphenyl)ethyl]-1(phenylacetyl)-4-piperidinecarboxamide], with 46%; and `COc1ccc(CCNC(=O)CCCC(=O)NCOc2ccc(OC)cc2)cc1` [CAP1229], with 22%. The same measure, in the same setting: then `COc1ccc(CCNC(=O)C2CC2)cc1OC` [CAP1230, N-[2-(3,4-dimethoxyphenyl)ethyl]cyclopropanecarboxamide], with 18%. Still for that read-out and setting: next, `COc1ccc(CCNC(=O)C2CCCC2)cc1OC` [CAP1231, N-[2-(3,4-dimethoxyphenyl)ethyl]cyclopentanecarboxamide]: 51%; `COc1ccc(CCNC(=O)C2CCN(C(=O)c3ccc(F)cc3)CC2)cc1OC` [CAP1232]: 41%. As to `COc1ccc(CCNC(=O)CCCC2CCCC2)cc1OC` [CAP1236], the inhibition at 200 µM is -2%. Still for that read-out and setting: next, `O=C(CC1CCC1)NCCc1ccc(O)c(O)c1` [CAP1239]: 23%; `CCCCCCCCCCCCCCCCCC(=O)NCCc1ccc(O)c(O)c1` [CAP1241]: 135%. Same read-out and setting: next, `NCCc1ccc(O)c(O)c1` [CAP1265]: -6%; `COc1ccc(CCNC(=O)CCC2CCCCC2)cc1OC` [CAP1274]: 55%; `COc1ccc(CC(=O)NC2CCCCCCCCCCC2)cc1OC` [CAP1279]: 5%. Regarding `O=C(NCCc1ccccc1)C1CCC(C(=O)NCCc2ccccc2)CC1` (centres unmarked) [CAP1280], the inhibition at 200 µM turned out to be 44%.

In the case of `COc1ccc(CCNC(=O)CC23CC4CC(CC(C4)C2)C3)cc1OC` [CAP1281], the inhibition at 200 µM stood at 64%. `NC(=O)c1ncn([C@@H]2O[C@H](CO)[C@@H](O)[C@H]2O)n1` [CAP1380]: the inhibition at 200 µM stood at 16%.

With `COc1cc2cc(C(=O)O)[nH]c2cc1OC` [CAP1447], the inhibition at 200 µM turned out to be 22%. Same read-out and setting: then `O=c1c(O)c(-c2ccc(O)c(O)c2)oc2cc(O)cc(O)c12` [CAP1451], with 35%; and `Oc1cc(O)c2c(c1)O[C@@H](c1ccc(O)c(O)c1)[C@@H](O)C2` [CAP1458], with -17%; and `COc1cc(/C=C/C(=O)/C=C(O)/C=C/c2ccc(O)c(OC)c2)ccc1O` [CAP1459], with -95%. Turning to `O=C(O[C@H]1Cc2c(O)cc(O)cc2O[C@H]1c1cc(O)c(O)c(O)c1)c1cc(O)c(O)c(O)c1` [CAP1460], the inhibition at 200 µM is 1%.

In the case of `CC(=O)Oc1cc2cc[nH]c2cc1OC(C)=O` [CAP1517], the inhibition at 200 µM worked out at 40%.

On to `COC(=O)[C@@H](NC(C)=O)c1ccc(OC(C)=O)c(OC(C)=O)c1` [CAP1518], for which the inhibition at 200 µM is -4%. Still for that read-out and setting: next, `COc1cc2cc[nH]c2cc1OC` [CAP1519]: 9%. Still for that read-out and setting: then `COc1cc2nc(N3CCN(C(=O)C4COc5ccccc5O4)CC3)nc(N)c2cc1OC` (centres unmarked) [CAP3035], with 114%. Still for that read-out and setting: then `O=C1O[C@H]([C@@H](O)CO)C(O)=C1O` [CAP3037], with -2%; and `COc1cc(/C=C/C(=O)CC(=O)/C=C/c2ccc(O)c(OC)c2)ccc1O` [CAP3040], with 4%. In the case of `O=C(O)/C=C/c1ccc(O)c(O)c1` [CAP3062], the inhibition at 200 µM amounted to 16%. The same measure, in the same setting: next, `COc1ccc(/C=C/C(=O)O)cc1OC` [CAP3064]: 12%; `CC(=O)/C=C/c1ccc(O)c(O)c1` [CAP3065]: -32%; `COc1ccc(/C=C/C(C)=O)cc1OC` [CAP3066]: 21%. Still for that read-out and setting: then `CC(=O)c1cc(C)cc([N+](=O)[O-])c1O` [CAP3071], with 30%. On the same count and under the same terms, next, `COc1cc(C(=O)O)cc(OC)c1O` [CAP3107]: 7%. `Oc1cc2cc[nH]c2cc1O` [CP1194]: the inhibition at 200 µM is 25%.

The assay is the same for the next values; noted with them: preventing Ca+2 and UVC induced aggregation of alpha-A crystalline.
`N[C@@H](Cc1ccc(O)c(O)c1)C(=O)O` [CAP1042] yielded a concentration for a half-maximal effect (EC50) of 860 µM.

For `O=c1c(O)c(-c2ccc(O)c(O)c2)oc2cc(O)ccc12` [CAP1053], the EC50 was determined as 461 µM. The same measure, in the same setting: next, `CCN(CC)C(=O)/C(C#N)=C/c1cc(O)c(O)c([N+](=O)[O-])c1` [CAP1159]: 313 µM; `COc1ccc(CCNC(=O)CCC2CCCCC2)cc1OC` [CAP1224]: 880 µM; `COc1ccc(CCNC(=O)C2CCC2)cc1OC` [CAP1226, N-[2-(3,4-dimethoxyphenyl)ethyl]cyclobutanecarboxamide]: 46.2 µM. Same read-out and setting: next, `COc1ccc(CCNC(=O)C2CCN(C(=O)Cc3ccccc3)CC2)cc1OC` [CAP1227, N-[2-(3,4-dimethoxyphenyl)ethyl]-1(phenylacetyl)-4-piperidinecarboxamide]: 288 µM; `O=C(NCCc1ccccc1)C1CCC(C(=O)NCCc2ccccc2)CC1` (centres unmarked) [CAP1280]: 193 µM.

`Oc1cc2cc[nH]c2cc1O` [CP1194] yielded an EC50 of 1100 µM.

Still in this assay, the particulars now being: read-out: Percent protection (at 200 μM).
In the case of `CC(CCc1ccc(O)cc1)NCCc1ccc(O)c(O)c1` (centres unmarked) [CAP1051], the inhibition at 200 µM was -28%. Turning to `CC1CCC(NC(C)Cc2ccc(O)c(O)c2)CC1` (centres unmarked) [CAP1240], the inhibition at 200 µM is -13%. On to `Cc1cc2c(C(C)C)c(O)c(O)c(C=O)c2c(O)c1-c1c(C)cc2c(C(C)C)c(O)c(O)c(C=O)c2c1O` [CAP1356], for which the inhibition at 200 µM was -46%.

The next assay has as its system human lens epithelial (HLE) cells. In words: Cell-based heat protection, viability by Alamar blue. As to conditions: Table 8. On the set-up: Cell Heat % protection: concentration or dose not given beside the values. Here is the method:
Alamar blue was used for assessing viability. Mean±SEM of the measurements are shown.
Cell-based using assays using human lens epithelial cell lines SRA 01/04 and B3 were also performed. The cells were exposed to UV or heat and cell viability assessed 24 hours post-exposure by Alamar blue staining. In another experiment, SRA 01/04 cells were pre-incubated with varying concentrations of compounds two hours prior to UV exposure. Relative protection was measured as percent viability compared to vehicle control 24 hours following UV exposure. Mean±SEM of the measurements are shown.
Background: The colour change of resazurin is a common sign of viable cells or microbes.
Take `Nc1cc(S(=O)(=O)O)cc2cc(S(=O)(=O)O)cc(O)c12` [CAP4179]: the “Cell Heat % protection” value stood at 29%. On the same count and under the same terms, then `Nc1ccc2c(O)cc(S(=O)(=O)O)cc2c1` [CAP4180], with 22%; and `O=S(=O)(O)c1cc(O)c2cc(Nc3ccccc3)ccc2c1` [CAP4183], with 17%. The same measure, in the same setting: then `O=S(=O)([O-])c1cc(O)c2cc(O)ccc2c1.[Na+]` [CAP4186], with 17%; and `Nc1ccc2cc(S(=O)(=O)[O-])cc(O)c2c1.[Na+]` [CAP4187], with 19%.

By EC50 is commonly meant the concentration at which the effect is half-maximal.
